Test results: BindingDB's records for doi:10.1016/j.ejmech.2019.02.016 (National Health Research Institutes, 2019)
pEC50: −log10 of the molar value.

experiment: Inhibition of NS5A in HCV genotype 1b infected in human HuH7 replicon cells assessed as reduction in subgenomic viral RNA replication treated for 2 days followed by compound washout and subsequent compound dosing measured after 1 day by SEAP reporter gene assay

| SMILES | pEC50 |
| --- | --- |
| COC(=O)N[C@H](C(=O)N1CCC[C@H]1c1ncc(-c2ccc(-c3ccc(-c4cnc([C@@H]5CCCN5C(=O)[C@@H](NC(=O)OC)c5ccccc5)s4)cc3)cc2)s1)c1ccccc1 | 7.39 |
| O=C(N[C@@H](C(=O)N1CCC[C@H]1c1ncc(-c2ccc(-c3ccc(-c4cnc([C@@H]5CCCN5C(=O)[C@H](NC(=O)C5CC5)C5CCCCC5)s4)cc3)cc2)s1)C1CCCCC1)C1CC1 | < 4.30 |
| O=C(CCN1CCOCC1)N[C@H](C(=O)N1CCC[C@H]1c1ncc(-c2ccc(-c3ccc(-c4cnc([C@@H]5CCCN5C(=O)[C@H](NC(=O)CCN5CCOCC5)c5ccccc5)s4)cc3)cc2)s1)c1ccccc1 | 8.59 |
| O=C(N[C@H](C(=O)N1CCC[C@H]1c1ncc(-c2ccc(-c3ccc(-c4cnc([C@@H]5CCCN5C(=O)[C@H](NC(=O)C5CCCCC5)c5ccccc5)s4)cc3)cc2)s1)c1ccccc1)C1CCCCC1 | 7.40 |
| CN1CCN(CCC(=O)N[C@@H](C(=O)N2CCC[C@H]2c2ncc(-c3ccc(-c4ccc(-c5cnc([C@@H]6CCCN6C(=O)[C@H](NC(=O)CCN6CCN(C)CC6)c6ccccc6)s5)cc4)cc3)s2)c2ccccc2)CC1 | 8.14 |
| COC(=O)N[C@H](C(=O)N1CCC[C@H]1c1ncc(-c2ccc(-c3ccc(-c4cnc([C@@H]5CCCN5C(=O)[C@H](NC(=O)OC)c5ccccc5)s4)cc3)cc2)s1)c1ccccc1 | 6.97 |
| CCOC(=O)N[C@H](C(=O)N1CCC[C@H]1c1ncc(-c2ccc(-c3ccc(-c4cnc([C@@H]5CCCN5C(=O)[C@@H](NC(=O)OCC)C(C)C)s4)cc3)cc2)s1)C(C)C | 6.49 |
| CC(C)[C@H](NC(=O)Oc1ccccc1)C(=O)N1CCC[C@H]1c1ncc(-c2ccc(-c3ccc(-c4cnc([C@@H]5CCCN5C(=O)[C@@H](NC(=O)Oc5ccccc5)C(C)C)s4)cc3)cc2)s1 | 5.55 |
| COC(=O)N[C@@H](C)C(=O)N1CCC[C@H]1c1ncc(-c2ccc(-c3ccc(-c4cnc([C@@H]5CCCN5C(=O)[C@H](C)NC(=O)OC)s4)cc3)cc2)s1 | 6.80 |
| CCC[C@H](NC(=O)OC)C(=O)N1CCC[C@H]1c1ncc(-c2ccc(-c3ccc(-c4cnc([C@@H]5CCCN5C(=O)[C@H](CCC)NC(=O)OC)s4)cc3)cc2)s1 | 6.91 |
| COC(=O)N[C@@H](CC(C)C)C(=O)N1CCC[C@H]1c1ncc(-c2ccc(-c3ccc(-c4cnc([C@@H]5CCCN5C(=O)[C@H](CC(C)C)NC(=O)OC)s4)cc3)cc2)s1 | 6.75 |
| CC(C)C[C@@H](NC(=O)C1CC1)C(=O)N1CCC[C@H]1c1ncc(-c2ccc(-c3ccc(-c4cnc([C@@H]5CCCN5C(=O)[C@@H](CC(C)C)NC(=O)C5CC5)s4)cc3)cc2)s1 | 7.57 |
| CC(C)[C@@H](NC(=O)C1CC1)C(=O)N1CCC[C@H]1c1ncc(-c2ccc(-c3ccc(-c4cnc([C@@H]5CCCN5C(=O)[C@H](NC(=O)C5CC5)C(C)C)s4)cc3)cc2)s1 | 6.14 |
| CCC[C@@H](NC(=O)C1CC1)C(=O)N1CCC[C@H]1c1ncc(-c2ccc(-c3ccc(-c4cnc([C@@H]5CCCN5C(=O)[C@@H](CCC)NC(=O)C5CC5)s4)cc3)cc2)s1 | 7.04 |
| CC[C@@H](NC(=O)C1CC1)C(=O)N1CCC[C@H]1c1ncc(-c2ccc(-c3ccc(-c4cnc([C@@H]5CCCN5C(=O)[C@@H](CC)NC(=O)C5CC5)s4)cc3)cc2)s1 | 6.36 |
| O=C(CCN1CCCCC1)N[C@H](C(=O)N1CCC[C@H]1c1ncc(-c2ccc(-c3ccc(-c4cnc([C@@H]5CCCN5C(=O)[C@H](NC(=O)CCN5CCCCC5)c5ccccc5)s4)cc3)cc2)s1)c1ccccc1 | 7.80 |
| O=C(CCN1CCCC1)N[C@H](C(=O)N1CCC[C@H]1c1ncc(-c2ccc(-c3ccc(-c4cnc([C@@H]5CCCN5C(=O)[C@H](NC(=O)CCN5CCCC5)c5ccccc5)s4)cc3)cc2)s1)c1ccccc1 | 7.64 |
| O=C(N[C@H](C(=O)N1CCC[C@H]1c1ncc(-c2ccc(-c3ccc(-c4cnc([C@@H]5CCCN5C(=O)[C@H](NC(=O)c5cccs5)c5ccccc5)s4)cc3)cc2)s1)c1ccccc1)c1cccs1 | 6.96 |
| O=C(N[C@H](C(=O)N1CCC[C@H]1c1ncc(-c2ccc(-c3ccc(-c4cnc([C@@H]5CCCN5C(=O)[C@H](NC(=O)c5cccnc5)c5ccccc5)s4)cc3)cc2)s1)c1ccccc1)c1cccnc1 | 8.68 |
| O=C(N[C@H](C(=O)N1CCC[C@H]1c1ncc(-c2ccc(-c3ccc(-c4cnc([C@@H]5CCCN5C(=O)[C@H](NC(=O)c5ccccc5)c5ccccc5)s4)cc3)cc2)s1)c1ccccc1)c1ccccc1 | 6.57 |
| CC(C)(C)C(=O)N[C@H](C(=O)N1CCC[C@H]1c1ncc(-c2ccc(-c3ccc(-c4cnc([C@@H]5CCCN5C(=O)[C@H](NC(=O)C(C)(C)C)c5ccccc5)s4)cc3)cc2)s1)c1ccccc1 | 7.28 |
| CCCCC(=O)N[C@H](C(=O)N1CCC[C@H]1c1ncc(-c2ccc(-c3ccc(-c4cnc([C@@H]5CCCN5C(=O)[C@H](NC(=O)CCCC)c5ccccc5)s4)cc3)cc2)s1)c1ccccc1 | 8.12 |
| CN(C)CCC(=O)N[C@@H](C(=O)N1CCC[C@H]1c1ncc(-c2ccc(-c3ccc(-c4cnc([C@@H]5CCCN5C(=O)[C@H](NC(=O)CCN(C)C)c5ccccc5)s4)cc3)cc2)s1)c1ccccc1 | 8.60 |
| O=C(N[C@@H](C(=O)N1CCC[C@H]1c1ncc(-c2ccc(-c3ccc(-c4cnc([C@@H]5CCCN5C(=O)[C@H](NC(=O)c5ccccn5)c5ccccc5)s4)cc3)cc2)s1)c1ccccc1)c1ccccn1 | 7.34 |
| O=C(N[C@@H](C(=O)N1CCC[C@H]1c1ncc(-c2ccc(-c3ccc(-c4cnc([C@@H]5CCCN5C(=O)[C@H](NC(=O)c5ccccc5)c5ccccc5)s4)cc3)cc2)s1)c1ccccc1)c1ccccc1 | 7.68 |

Now those with a higher pEC50, led by results:

| pEC50 | SMILES |
| --- | --- |
| 8.85 | O=C(N[C@@H](C(=O)N1CCC[C@H]1c1ncc(-c2ccc(-c3ccc(-c4cnc([C@@H]5CCCN5C(=O)[C@H](NC(=O)c5cccs5)c5ccccc5)s4)cc3)cc2)s1)c1ccccc1)c1cccs1 |
| 11.15 | O=C(N[C@@H](C(=O)N1CCC[C@H]1c1ncc(-c2ccc(-c3ccc(-c4cnc([C@@H]5CCCN5C(=O)[C@H](NC(=O)C5CCC5)c5ccccc5)s4)cc3)cc2)s1)c1ccccc1)C1CCC1 |
| 8.96 | O=C(N[C@H](C(=O)N1CCC[C@H]1c1ncc(-c2ccc(-c3ccc(-c4cnc([C@@H]5CCCN5C(=O)[C@H](NC(=O)N5CCOCC5)c5ccccc5)s4)cc3)cc2)s1)c1ccccc1)N1CCOCC1 |
| 9.72 | COC(=O)N[C@@H](C(=O)N1CCC[C@H]1c1ncc(-c2ccc(-c3ccc(-c4cnc([C@@H]5CCCN5C(=O)[C@H](NC(=O)OC)c5ccccc5)s4)cc3)cc2)s1)c1ccccc1 |
| 9.64 | O=C(CCn1cccc1)N[C@H](C(=O)N1CCC[C@H]1c1ncc(-c2ccc(-c3ccc(-c4cnc([C@@H]5CCCN5C(=O)[C@H](NC(=O)CCn5cccc5)c5ccccc5)s4)cc3)cc2)s1)c1ccccc1 |
| 8.72 | O=C(N[C@H](C(=O)N1CCC[C@H]1c1ncc(-c2ccc(-c3ccc(-c4cnc([C@@H]5CCCN5C(=O)[C@H](NC(=O)N5CCCCC5)c5ccccc5)s4)cc3)cc2)s1)c1ccccc1)N1CCCCC1 |
| 8.89 | O=C(N[C@H](C(=O)N1CCC[C@H]1c1ncc(-c2ccc(-c3ccc(-c4cnc([C@@H]5CCCN5C(=O)[C@H](NC(=O)N5CCCC5)c5ccccc5)s4)cc3)cc2)s1)c1ccccc1)N1CCCC1 |
| 9.20 | O=C(N[C@H](C(=O)N1CCC[C@H]1c1ncc(-c2ccc(-c3ccc(-c4cnc([C@@H]5CCCN5C(=O)[C@H](NC(=O)c5ccoc5)c5ccccc5)s4)cc3)cc2)s1)c1ccccc1)c1ccoc1 |
| 8.77 | O=C(N[C@H](C(=O)N1CCC[C@H]1c1ncc(-c2ccc(-c3ccc(-c4cnc([C@@H]5CCCN5C(=O)[C@H](NC(=O)c5ccco5)c5ccccc5)s4)cc3)cc2)s1)c1ccccc1)c1ccco1 |
| 9.35 | O=C(N[C@H](C(=O)N1CCC[C@H]1c1ncc(-c2ccc(-c3ccc(-c4cnc([C@@H]5CCCN5C(=O)[C@H](NC(=O)C5CCC5)c5ccccc5)s4)cc3)cc2)s1)c1ccccc1)C1CCC1 |
| 8.82 | O=C(N[C@H](C(=O)N1CCC[C@H]1c1ncc(-c2ccc(-c3ccc(-c4cnc([C@@H]5CCCN5C(=O)[C@H](NC(=O)C5CC5)c5ccccc5)s4)cc3)cc2)s1)c1ccccc1)C1CC1 |
| 9.11 | CCCC(=O)N[C@H](C(=O)N1CCC[C@H]1c1ncc(-c2ccc(-c3ccc(-c4cnc([C@@H]5CCCN5C(=O)[C@H](NC(=O)CCC)c5ccccc5)s4)cc3)cc2)s1)c1ccccc1 |
| 9.07 | CCC(=O)N[C@H](C(=O)N1CCC[C@H]1c1ncc(-c2ccc(-c3ccc(-c4cnc([C@@H]5CCCN5C(=O)[C@H](NC(=O)CC)c5ccccc5)s4)cc3)cc2)s1)c1ccccc1 |
| 9.00 | CCN(CC)CCC(=O)N[C@@H](C(=O)N1CCC[C@H]1c1ncc(-c2ccc(-c3ccc(-c4cnc([C@@H]5CCCN5C(=O)[C@H](NC(=O)CCN(CC)CC)c5ccccc5)s4)cc3)cc2)s1)c1ccccc1 |
| 10.80 | O=C(N[C@@H](C(=O)N1CCC[C@H]1c1ncc(-c2ccc(-c3ccc(-c4cnc([C@@H]5CCCN5C(=O)[C@H](NC(=O)N5CCCCC5)c5ccccc5)s4)cc3)cc2)s1)c1ccccc1)N1CCCCC1 |
| 10.46 | O=C(N[C@@H](C(=O)N1CCC[C@H]1c1ncc(-c2ccc(-c3ccc(-c4cnc([C@@H]5CCCN5C(=O)[C@H](NC(=O)N5CCCC5)c5ccccc5)s4)cc3)cc2)s1)c1ccccc1)N1CCCC1 |
| 9.28 | O=C(N[C@@H](C(=O)N1CCC[C@H]1c1ncc(-c2ccc(-c3ccc(-c4cnc([C@@H]5CCCN5C(=O)[C@H](NC(=O)c5ccsc5)c5ccccc5)s4)cc3)cc2)s1)c1ccccc1)c1ccsc1 |
| 10.15 | O=C(N[C@@H](C(=O)N1CCC[C@H]1c1ncc(-c2ccc(-c3ccc(-c4cnc([C@@H]5CCCN5C(=O)[C@H](NC(=O)c5ccco5)c5ccccc5)s4)cc3)cc2)s1)c1ccccc1)c1ccco1 |
| 9.60 | O=C(N[C@@H](C(=O)N1CCC[C@H]1c1ncc(-c2ccc(-c3ccc(-c4cnc([C@@H]5CCCN5C(=O)[C@H](NC(=O)C5CCCCC5)c5ccccc5)s4)cc3)cc2)s1)c1ccccc1)C1CCCCC1 |
| 11.22 | O=C(N[C@@H](C(=O)N1CCC[C@H]1c1ncc(-c2ccc(-c3ccc(-c4cnc([C@@H]5CCCN5C(=O)[C@H](NC(=O)C5CCCC5)c5ccccc5)s4)cc3)cc2)s1)c1ccccc1)C1CCCC1 |
| 8.85 | CC(C)(C)C(=O)N[C@@H](C(=O)N1CCC[C@H]1c1ncc(-c2ccc(-c3ccc(-c4cnc([C@@H]5CCCN5C(=O)[C@H](NC(=O)C(C)(C)C)c5ccccc5)s4)cc3)cc2)s1)c1ccccc1 |
| 10.20 | CCCCCC(=O)N[C@@H](C(=O)N1CCC[C@H]1c1ncc(-c2ccc(-c3ccc(-c4cnc([C@@H]5CCCN5C(=O)[C@H](NC(=O)CCCCC)c5ccccc5)s4)cc3)cc2)s1)c1ccccc1 |
